Values after ≈ are worked out from the molar mass of the structure shown.
system: Plasmodium falciparum; experiment: Antimalarial activity against chloroquine, mefloquine, pyrimethamine and atovaquone-resistant Plasmodium falciparum TM90-C2B infected in human A+ erythrocytes after 72 hrs by SYBR Green I assay; assay type: functional, organism-based; settings: not given

Compound | EC50 [nM]
Cc1c(Cc2ccccc2)c(=O)c2cc(Cl)ccc2n1C | > 8400
COc1ccc2c(=O)c(Cc3ccccc3)c(C)n(C)c2c1 | 7840
COc1ccc2nc(C)c(Cc3ccccc3)c(OC)c2c1 | > 8520
COc1c(Cc2ccccc2)c(C)nc2ccc(Cl)cc12 | > 8400
COc1ccc2c(OC)c(Cc3ccccc3)c(C)nc2c1 | > 8520
CCCCCCCCCc1c(C)[nH]c2cc(OC)c(Cl)cc2c1=O | 1.59
COc1cc2[nH]c(C)c(Cc3ccccc3)c(=O)c2cc1Cl | 68.6
CCCCC#Cc1c(C)[nH]c2cc(OC)c(Cl)cc2c1=O | 4210
CCCCC/C=C/c1c(C)[nH]c2cc(OC)c(Cl)cc2c1=O | 10.6
Cc1ccc2[nH]c(C)c(Br)c(=O)c2c1 | 261
CCCCCCCc1c(C)nc2ccccc2c1O | 105
CCCCCCCCCc1c(C)[nH]c2ccccc2c1=O | 39.8
O=C1C(O)=C([C@H]2CC[C@H](c3ccc(Cl)cc3)CC2)C(=O)c2ccccc21 [ATOVAQUONE] | 6230
CCN(CC)CCCC(C)Nc1ccnc2cc(Cl)ccc12 (centres undefined) [CHLOROQUINE] | 48.2

system: Plasmodium falciparum; experiment: Antimalarial activity against chloroquine and pyrimethamine-resistant Plasmodium falciparum W2 infected in human A+ erythrocytes after 72 hrs by SYBR Green I assay; assay type: functional, organism-based; settings: W2, 72 h

Compound | EC50 [nM]
CCCCCCC/C=C/c1c(C)[nH]c2ccccc2c1=O | 12.9
C=C(CCCCCCC)c1c(C)[nH]c2ccccc2c1=O | 39.6
CCCCCC/C=C\Cc1c(C)[nH]c2ccccc2c1=O | 102
Cc1c(Cc2ccccc2)c(=O)c2cc(Cl)ccc2n1C | > 8400
COc1ccc2c(=O)c(Cc3ccccc3)c(C)n(C)c2c1 | > 8520
COc1ccc2nc(C)c(Cc3ccccc3)c(OC)c2c1 | > 8520
COc1c(Cc2ccccc2)c(C)nc2ccc(Cl)cc12 | > 8400
COc1ccc2c(OC)c(Cc3ccccc3)c(C)nc2c1 | > 8520
CCCCCCCCCc1c(C)[nH]c2cc(OC)c(Cl)cc2c1=O | 6.03
COc1cc2[nH]c(C)c(Cc3ccccc3)c(=O)c2cc1Cl | 93.7
CCCCC#Cc1c(C)[nH]c2cc(OC)c(Cl)cc2c1=O | 2160
CCCCC/C=C/c1c(C)[nH]c2cc(OC)c(Cl)cc2c1=O | 31.5
Cc1ccc2[nH]c(C)c(Br)c(=O)c2c1 | 288
CCCCCCCc1c(C)nc2ccccc2c1O | 93.2
CCCCCCCCCc1c(C)[nH]c2ccccc2c1=O | 24.1
O=C1C(O)=C([C@H]2CC[C@H](c3ccc(Cl)cc3)CC2)C(=O)c2ccccc21 [ATOVAQUONE] | 0.54
CCN(CC)CCCC(C)Nc1ccnc2cc(Cl)ccc12 (centres undefined) [CHLOROQUINE] | 164

system: J774; experiment: Cytotoxicity against mouse J774 cells; assay type: cell-based; settings: not given

Compound | EC50 [µM]
CCCCCCCCCc1c(C)[nH]c2cc(OC)c(Cl)cc2c1=O | > 28.7
COc1cc2[nH]c(C)c(Cc3ccccc3)c(=O)c2cc1Cl | > 31.9
CCCCC#Cc1c(C)[nH]c2cc(OC)c(Cl)cc2c1=O | 15
CCCCC/C=C/c1c(C)[nH]c2cc(OC)c(Cl)cc2c1=O | > 31.2
Cc1ccc2[nH]c(C)c(Br)c(=O)c2c1 | 19.6
CCCCCCCc1c(C)nc2ccccc2c1O | 5.1
CCCCCCCCCc1c(C)[nH]c2ccccc2c1=O | 2.8

system: not listed separately; experiment: Lipophilicity, log D of the compound at pH 7.4; settings: buffer

Compound | logD
Cc1nc2ccccc2c(OCc2ccccc2)c1Br | 2.52
COc1cc2[nH]c(C)c(Br)c(=O)c2cc1Cl | 0
CCCCCCC/C=C/c1c(C)[nH]c2ccccc2c1=O | 4.26
C=C(CCCCCCC)c1c(C)[nH]c2ccccc2c1=O | 2.35
CCCCCC/C=C\Cc1c(C)[nH]c2ccccc2c1=O | 5.94
Cc1c(Cc2ccccc2)c(=O)c2cc(Cl)ccc2n1C | 3.21
COc1ccc2c(=O)c(Cc3ccccc3)c(C)n(C)c2c1 | 3.24
COc1ccc2nc(C)c(Cc3ccccc3)c(OC)c2c1 | 4.2
COc1c(Cc2ccccc2)c(C)nc2ccc(Cl)cc12 | 4.93
COc1ccc2c(OC)c(Cc3ccccc3)c(C)nc2c1 | 4.35
CCCCCCCCCc1c(C)[nH]c2cc(OC)c(Cl)cc2c1=O | 4.74
COc1cc2[nH]c(C)c(Cc3ccccc3)c(=O)c2cc1Cl | 1.99
CCCCC#Cc1c(C)[nH]c2cc(OC)c(Cl)cc2c1=O | 2.45
CCCCC/C=C/c1c(C)[nH]c2cc(OC)c(Cl)cc2c1=O | 3.57
Cc1ccc2[nH]c(C)c(Br)c(=O)c2c1 | 1.07
CCCCCCCc1c(C)nc2ccccc2c1O | 3.39
CCCCCCCCCc1c(C)[nH]c2ccccc2c1=O | 4.33

system: not listed separately; experiment: Passive transcellular permeability of the compound at pH 7.4 by PAMPA; assay type: ADME; settings: not given

Compound | permeability [×10⁻⁶ cm/s]
COc1ccc2nc(C)c(Cc3ccccc3)c(OC)c2c1 | 1067.76
COc1ccc2c(OC)c(Cc3ccccc3)c(C)nc2c1 | 1277.24

same assay, conditions: read-out: permeability

Compound | Papp [×10⁻⁶ cm/s]
Cc1nc2ccccc2c(OCc2ccccc2)c1Br | 794
COc1cc2[nH]c(C)c(Br)c(=O)c2cc1Cl | 152
Cc1c(Cc2ccccc2)c(=O)c2cc(Cl)ccc2n1C | 489
COc1ccc2c(=O)c(Cc3ccccc3)c(C)n(C)c2c1 | 299
COc1c(Cc2ccccc2)c(C)nc2ccc(Cl)cc12 | 268
COc1cc2[nH]c(C)c(Cc3ccccc3)c(=O)c2cc1Cl | 566
CCCCC/C=C/c1c(C)[nH]c2cc(OC)c(Cl)cc2c1=O | 46.3
Cc1ccc2[nH]c(C)c(Br)c(=O)c2c1 | 42.2

system: not listed separately; experiment: Passive transcellular permeability of the compound at pH 4 by PAMPA; assay type: ADME; settings: not given

Compound | permeability [×10⁻⁶ cm/s]
C=C(CCCCCCC)c1c(C)[nH]c2ccccc2c1=O | 1755.67

same assay, conditions: read-out: permeability

Compound | Papp [×10⁻⁶ cm/s]
Cc1nc2ccccc2c(OCc2ccccc2)c1Br | 99.7
COc1cc2[nH]c(C)c(Br)c(=O)c2cc1Cl | 125
CCCCCCC/C=C/c1c(C)[nH]c2ccccc2c1=O | 174
Cc1c(Cc2ccccc2)c(=O)c2cc(Cl)ccc2n1C | 510
COc1ccc2c(=O)c(Cc3ccccc3)c(C)n(C)c2c1 | 432
COc1ccc2nc(C)c(Cc3ccccc3)c(OC)c2c1 | 294
COc1c(Cc2ccccc2)c(C)nc2ccc(Cl)cc12 | 360
COc1ccc2c(OC)c(Cc3ccccc3)c(C)nc2c1 | 325
COc1cc2[nH]c(C)c(Cc3ccccc3)c(=O)c2cc1Cl | 575
CCCCC#Cc1c(C)[nH]c2cc(OC)c(Cl)cc2c1=O | 148
CCCCC/C=C/c1c(C)[nH]c2cc(OC)c(Cl)cc2c1=O | 280
Cc1ccc2[nH]c(C)c(Br)c(=O)c2c1 | 26.4

system: not listed separately; experiment: in vitro; settings: mouse, J774 cells
Description: Cytotoxicity index, ratio of EC50 for mice (Mus musculus) J774 cells to EC50 for chloroquine, mefloquine, pyrimethamine and atovaquone-resistant Plasmodium falciparum TM90-C2B

Compound | selectivity ratio
CCCCCCCCCc1c(C)[nH]c2cc(OC)c(Cl)cc2c1=O | > 18000
CCCCC#Cc1c(C)[nH]c2cc(OC)c(Cl)cc2c1=O | 3.6
CCCCC/C=C/c1c(C)[nH]c2cc(OC)c(Cl)cc2c1=O | > 2950
Cc1ccc2[nH]c(C)c(Br)c(=O)c2c1 | 74.9
CCCCCCCc1c(C)nc2ccccc2c1O | 48.3
CCCCCCCCCc1c(C)[nH]c2ccccc2c1=O | 69.9

system: not listed separately; experiment: physchem; settings: aqueous, pH 7.4
Description: Aqueous solubility of the compound at pH 7.4 by HPLC analysis

Compound | solubility [µM]
CCCCCCC/C=C/c1c(C)[nH]c2ccccc2c1=O | < 2
C=C(CCCCCCC)c1c(C)[nH]c2ccccc2c1=O | < 2
CCCCCC/C=C\Cc1c(C)[nH]c2ccccc2c1=O | < 2
Cc1c(Cc2ccccc2)c(=O)c2cc(Cl)ccc2n1C | 2 (≈ 0.596 µg/mL)
COc1ccc2c(=O)c(Cc3ccccc3)c(C)n(C)c2c1 | > 20
COc1ccc2nc(C)c(Cc3ccccc3)c(OC)c2c1 | 2 (≈ 0.587 µg/mL)
COc1c(Cc2ccccc2)c(C)nc2ccc(Cl)cc12 | < 2
COc1ccc2c(OC)c(Cc3ccccc3)c(C)nc2c1 | 2 (≈ 0.587 µg/mL)
CCCCCCCCCc1c(C)[nH]c2cc(OC)c(Cl)cc2c1=O | < 2
CCCCC#Cc1c(C)[nH]c2cc(OC)c(Cl)cc2c1=O | > 20

Source: ChEMBL document CHEMBL1255199, “Endochin optimization: structure-activity and structure-property relationship studies of 3-substituted 2-methyl-4(1H)-quinolones with antimalarial activity” (J Med Chem, 2010)
